Data taken from US20240390340A1 (INCYTE CORPORATION, priority 2023, published 2024).

Assays:
KRAS G12V = KRAS G12V (Homo sapiens, UniProt P01116, G12V); test: GDP-GTP exchange assay (bodipy-GDP/GppNHp, SOS1), KRAS G12V; assay type: biochemical; conditions: KRAS G12V mutant; value for the most potent isomer quoted for certain compounds; read-out: G12V (KRAS G12V exchange assay IC50)
Procedure: (§1) The inhibitor potency of the exemplified compounds was determined in a fluorescence based guanine nucleotide exchange assay, which measures the exchange of bodipy-GDP (fluorescently labeled GOP) for GppNHp (Non-hydrolyzable GTP analog) to generate the active state of KRAS in the presence of SOS1 (guanine nucleotide exchange factor). Inhibitors were serially diluted in DMSO and a volume of 0.1 μL was transferred to the wells of a black low volume 384-well plate. 5 μL/well volume of bodipy-loaded KRAS G12D diluted to 2.5 nM in assay buffer (25 mM Hepes pH 7.5, 50 mM NaCl, 10 mM MgCl2 and 0.01% Brij-35) was added to the plate and pre-incubated with inhibitor for 4 h at r.t. Appropriate controls (enzyme with no inhibitor or with a G12D inhibitor) were included on the plate. The exchange was initiated by the addition of a 5 μL/well volume containing 1 mM GppNHp and 300 nM SOS1 in assay buffer. The 10 μL/well reaction concentration of the bodipy-loaded KRAS G12D, GppNHp, and SOS1 were 2.5 nM, 500 μM, and 150 nM, respectively. The reaction plates were incubated at r.t. for 2 h, a time estimated for complete GDP-GTP exchange in the absence of inhibitor. For the KRAS G12V mutant, similar guanine nucleotide exchange assays were used with 2.5 nM as final concentration for the bodipy loaded KRAS proteins and 3 h incubation after adding GppNHp-SOS1 mixture. A cyclic peptide described to selectively bind G12D mutant (Sakamoto et al., BBRC 484.3 (2017), 605-611) or internal compounds with confirmed binding were used as positive controls in the assay plates. Fluorescence intensities were measured on a PheraStar plate reader instrument (BMG Labtech) with excitation at 485 nm and emission at 520 nm.
(§2) Either GraphPad prism or Genedata Screener SmartFit was used to analyze the data. The IC50 values were derived by fitting the data to a four parameter logistic equation producing a sigmoidal dose-response curve with a variable Hill coefficient.
(§3) The symbol “†” indicates IC50≤100 nM, “††” indicates IC50>100 nM but ≤1 μM; and “†††” indicates IC50 is >1 μM but ≤5 μM, “††††” indicates IC50 is >5 μM but ≤10 μM. “NA” indicates IC50 not available.

KRAS G12D = KRAS G12D (Homo sapiens, UniProt P01116, G12D); test: GDP-GTP exchange assay (bodipy-GDP/GppNHp, SOS1), KRAS G12D; assay type: biochemical; conditions: bodipy-loaded KRAS G12D 2.5 nM, 4 h pre-incubation; value for the most potent isomer quoted for certain compounds; read-out: G12D (KRAS G12D exchange assay IC50)
Procedure: as §1, §2, §3

Sequence of KRAS G12D (P01116 1-188 isoform P01116-2 G12D): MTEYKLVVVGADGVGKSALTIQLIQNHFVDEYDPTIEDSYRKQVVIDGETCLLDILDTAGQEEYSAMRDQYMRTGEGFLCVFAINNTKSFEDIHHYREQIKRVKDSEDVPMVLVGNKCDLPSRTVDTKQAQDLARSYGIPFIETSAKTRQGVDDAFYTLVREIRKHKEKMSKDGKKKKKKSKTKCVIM
Sequence of KRAS G12V (P01116 1-188 isoform P01116-2 G12V): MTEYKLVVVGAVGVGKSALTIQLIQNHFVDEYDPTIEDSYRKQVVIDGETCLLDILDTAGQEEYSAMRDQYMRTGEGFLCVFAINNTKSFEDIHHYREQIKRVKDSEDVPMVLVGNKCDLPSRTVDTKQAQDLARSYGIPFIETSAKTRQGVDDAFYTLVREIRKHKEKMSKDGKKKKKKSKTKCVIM

Structure (SMILES)	IC50 (KRAS G12V)	IC50 (KRAS G12D)
Cc1nc2c(F)c(-c3cccc(Cl)c3Cl)c(CCC#N)cc2c2c1cc([C@H]1C[C@H](OCC3CC(F)(F)C3)CN1C(=O)C1CC1)n2[C@H]1[C@H]2CN[C@@H]1C2 [Example 445]	≤ 0.1 µM	≤ 0.1 µM
COc1ncc(Br)cc1O[C@H]1C[C@H](c2cc3c(C)nc4c(F)c(-c5cccc(Cl)c5Cl)c(CCC#N)cc4c3n2[C@H]2[C@H]3CN[C@@H]2C3)N(C(=O)C2CC2)C1 [Example 450]	≤ 0.1 µM	≤ 0.1 µM
Cc1nc(CO[C@H]2C[C@H](c3cc4c(C)nc5c(F)c(-c6cccc(Cl)c6Cl)c(CCC#N)cc5c4n3[C@H]3[C@H]4CN[C@@H]3C4)N(C(=O)C3CC3)C2)cs1 [Example 107]	≤ 0.1 µM	≤ 0.1 µM
Cc1cn([C@H]2C[C@H](c3cc4c(C)nc5c(F)c(-c6cccc(Cl)c6Cl)c(CCC#N)cc5c4n3[C@H]3[C@H]4CN[C@@H]3C4)N(C(=O)C3CC3)C2)nn1 [Example 343]	≤ 0.1 µM	≤ 0.1 µM
Cc1nc2c(F)c(-c3cccc(Cl)c3Cl)c(CCC#N)cc2c2c1cc([C@H]1C[C@H](n3cc(Cc4ccccc4)nn3)CN1C(=O)C1CC1)n2[C@H]1[C@H]2CN[C@@H]1C2 [Example 145]	≤ 0.1 µM	≤ 0.1 µM
Cc1nc2c(F)c(-c3cccc(Cl)c3Cl)c(CCC#N)cc2c2c1cc([C@H]1C[C@H](OCc3ccccc3C(F)(F)F)CN1C(=O)C1CC1)n2[C@H]1[C@H]2CN[C@@H]1C2 [Example 117]	≤ 0.1 µM	≤ 0.1 µM
Cc1nc2c(F)c(-c3cccc(Cl)c3Cl)c(CCC#N)cc2c2c1cc([C@H]1C[C@H](Oc3cccc(C4CC4)c3)CN1C(=O)C1CC1)n2[C@H]1[C@H]2CN[C@@H]1C2 [Example 169]	≤ 0.1 µM	≤ 0.1 µM
Cc1nc2c(F)c(-c3cccc(Cl)c3Cl)c(CCC#N)cc2c2c1cc([C@H]1C[C@H](Oc3cccc(C(F)(F)F)n3)CN1C(=O)C1CC1)n2[C@H]1C2CNC1C2 (stereo partly drawn) [Example 142]	≤ 0.1 µM	≤ 0.1 µM
Cc1cc(-c2nc3c(F)c(-c4cccc(Cl)c4Cl)c(CCC#N)cc3c3c2cc([C@H]2C[C@H](OCc4c(F)cccc4F)CN2C(=O)C2CC2)n3[C@H]2[C@H]3CN[C@@H]2C3)cc(C)n1 [Example 208]	5 to 10 µM	5 to 10 µM
COc1cccc(CO[C@H]2C[C@H](c3cc4c(C)nc5c(F)c(-c6cccc(Cl)c6Cl)c(CCC#N)cc5c4n3[C@H]3[C@H]4CN[C@@H]3C4)N(C(=O)C3CC3)C2)n1 [Example 267]	≤ 0.1 µM	≤ 0.1 µM
Cc1ccc(O[C@H]2C[C@H](c3cc4c(C)nc5c(F)c(-c6cccc(Cl)c6Cl)c(CCC#N)cc5c4n3[C@H]3[C@H]4CN[C@@H]3C4)N(C(=O)C3CC3)C2)cc1 [Example 118]	≤ 0.1 µM	≤ 0.1 µM
Cc1nc2c(F)c(-c3cccc(Cl)c3Cl)c(CCC#N)cc2c2c1cc([C@H]1C[C@H](OC3CCC(O)CC3)CN1C(=O)C1CC1)n2[C@H]1[C@H]2CN[C@@H]1C2 (stereo partly drawn) [Example 336]	≤ 0.1 µM	≤ 0.1 µM
Cc1nc2c(F)c(-c3cccc(Cl)c3Cl)c(CCC#N)cc2c2c1cc([C@H]1C[C@H](Oc3ncco3)CN1C(=O)C1CC1)n2[C@H]1[C@H]2CN[C@@H]1C2 [Example 188]	5 to 10 µM	5 to 10 µM
Cc1nc2c(F)c(-c3cccc(Cl)c3Cl)c(CCC#N)cc2c2c1cc([C@H]1C[C@H](n3cc(CCc4ccccc4)nn3)CN1C(=O)C1CC1)n2[C@H]1[C@H]2CN[C@@H]1C2 [Example 389]	≤ 0.1 µM	≤ 0.1 µM

The remaining lines, values ahead:

IC50 (KRAS G12V)	IC50 (KRAS G12D)	Structure (SMILES)
≤ 0.1 µM	≤ 0.1 µM	Cc1nc2c(F)c(-c3cccc(Cl)c3Cl)c(CCC#N)cc2c2c1cc([C@H]1C[C@H](Oc3cccc(OC(F)(F)F)c3)CN1C(=O)C1CC1)n2[C@H]1[C@H]2CN[C@@H]1C2 [Example 171]
≤ 0.1 µM	≤ 0.1 µM	CCOC(=O)c1cnn([C@H]2C[C@H](c3cc4c(C)nc5c(F)c(-c6cccc(Cl)c6Cl)c(CCC#N)cc5c4n3[C@H]3[C@H]4CN[C@@H]3C4)N(C(=O)C3CC3)C2)n1 [Example 393]
≤ 0.1 µM	≤ 0.1 µM	CCc1cccc(O[C@H]2C[C@H](c3cc4c(C)nc5c(F)c(-c6cccc(Cl)c6Cl)c(CCC#N)cc5c4n3[C@H]3[C@H]4CN[C@@H]3C4)N(C(=O)C3CC3)C2)c1 [Example 167]
≤ 0.1 µM	≤ 0.1 µM	Cc1cccnc1CO[C@H]1C[C@H](c2cc3c(C)nc4c(F)c(-c5cccc(Cl)c5Cl)c(CCC#N)cc4c3n2[C@H]2[C@H]3CN[C@@H]2C3)N(C(=O)C2CC2)C1 [Example 150]
≤ 0.1 µM	≤ 0.1 µM	Cc1nc2c(F)c(-c3cccc(Cl)c3Cl)c(CCC#N)cc2c2c1cc([C@H]1C[C@H](Oc3cccc(C(=O)N4CCCC4)c3)CN1C(=O)C1CC1)n2[C@H]1[C@H]2CN[C@@H]1C2 [Example 223]
≤ 0.1 µM	≤ 0.1 µM	Cc1nc2c(F)c(-c3cccc(Cl)c3Cl)c(CCC#N)cc2c2c1cc([C@H]1C[C@H](n3cc(C4(C)CC4)nn3)CN1C(=O)C1CC1)n2[C@H]1[C@H]2CN[C@@H]1C2 [Example 224]
≤ 0.1 µM	≤ 0.1 µM	Cc1nc2c(F)c(-c3cccc(Cl)c3Cl)c(CCC#N)cc2c2c1cc([C@H]1C[C@H](OCc3cnsc3)CN1C(=O)C1CC1)n2[C@H]1[C@H]2CN[C@@H]1C2 [Example 110]
≤ 0.1 µM	≤ 0.1 µM	Cc1nc2c(F)c(-c3cccc(Cl)c3Cl)c(CCC#N)cc2c2c1cc([C@H]1C[C@H](Oc3cnccc3C#N)CN1C(=O)C1CC1)n2[C@H]1[C@H]2CN[C@@H]1C2 [Example 302]
≤ 0.1 µM	≤ 0.1 µM	COc1ccccc1O[C@H]1C[C@H](c2cc3c(C)nc4c(F)c(-c5cccc(Cl)c5Cl)c(CCC#N)cc4c3n2[C@H]2[C@H]3CN[C@@H]2C3)N(C(=O)C2CC2)C1 [Example 250]
≤ 0.1 µM	≤ 0.1 µM	COc1cc(C#N)ccc1O[C@H]1C[C@H](c2cc3c(C)nc4c(F)c(-c5cccc(Cl)c5Cl)c(CCC#N)cc4c3n2[C@H]2[C@H]3CN[C@@H]2C3)N(C(=O)C2CC2)C1 [Example 292]
≤ 0.1 µM	≤ 0.1 µM	Cc1nc2c(F)c(-c3cccc(Cl)c3Cl)c(CCC#N)cc2c2c1cc([C@H]1C[C@H](Oc3ccncc3)CN1C(=O)C1CC1)n2[C@H]1[C@H]2CN[C@@H]1C2 [Example 193]
≤ 0.1 µM	≤ 0.1 µM	Cc1nc2c(F)c(-c3cccc(Cl)c3Cl)c(CCC#N)cc2c2c1cc([C@H]1C[C@H](OCc3cnnn3C)CN1C(=O)C1CC1)n2[C@H]1[C@H]2CN[C@@H]1C2 [Example 106]
≤ 0.1 µM	≤ 0.1 µM	Cc1nc2c(F)c(-c3cccc(Cl)c3Cl)c(CCC#N)cc2c2c1cc([C@H]1C[C@H](OCC3CCOCC3)CN1C(=O)C1CC1)n2[C@H]1[C@H]2CN[C@@H]1C2 [Example 413]
≤ 0.1 µM	≤ 0.1 µM	Cc1nc2c(F)c(-c3cccc(Cl)c3Cl)c(CCC#N)cc2c2c1cc([C@H]1C[C@H](OCc3cc(F)ccc3C#N)CN1C(=O)C1CC1)n2[C@H]1[C@H]2CN[C@@H]1C2 [Example 157]
≤ 0.1 µM	≤ 0.1 µM	Cc1nc2c(F)c(-c3cccc(Cl)c3Cl)c(CCC#N)cc2c2c1cc([C@H]1C[C@H](n3cc(C4CC4)nn3)CN1C(=O)C1CC1)n2[C@H]1[C@H]2CN[C@@H]1C2 [Example 179]
≤ 0.1 µM	≤ 0.1 µM	Cc1nc2c(F)c(-c3cccc(Cl)c3Cl)c(CCC#N)cc2c2c1cc([C@H]1C[C@H](Oc3cccc(F)c3)CN1C(=O)C1CC1)n2[C@H]1[C@H]2CN[C@@H]1C2 [Example 122]
